Assay results from patent publication US20230167088A1, “1-PYRAZINYLPYRAZOLYL-3-OXYALKYL ACIDS AND THEIR DERIVATIVES, AND THEIR USE FOR CONTROL OF UNDESIRED PLANT GROWTH” (BAYER AKTIENGESELLSCHAFT, priority 2020, published 2023).

What was measured:
AMARE [1] = assay: Herbicidal post-emergence action 1a (greenhouse pots, visual rating); type: in vivo, Amaranthus retroflexus; conditions: visual rating about 3 weeks after treatment
Outline: (§1)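 Visual scoring versus untreated plants (100% = plants dead, 0% = as control) followed roughly 3 weeks in the greenhouse after treatment. Plants grown in sandy loam pots had been sprayed on green parts at the one-leaf stage, 2–3 weeks post-sowing, with aqueous WP/EC preparations containing 0.5% additive, 600 l/ha, at 320 and/or 80 g/ha.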

AVEFA [2] = assay: as above; type: in vivo, Avena fatua; conditions: rated visually about 3 weeks after treatment, 100% = plants have died, 0% = like control plants
Outline: as §1

ABUTH [3] = assay: Herbicidal pre-emergence action 2a (greenhouse pots, visual scoring); type: in vivo, Abutilon theophrasti; conditions: dosage 320 g/ha, visual scoring after about 3 weeks vs untreated controls
Excerpt: [table] a) Seeds of monocotyledonous and dicotyledonous weed plants and crop plants are placed in plastic or organic plant pots and covered with soil. The compounds of the invention, formulated in the form of wettable powders (WP) or as emulsion concentrates (EC), are then applied onto the surface of the covering soil as aqueous suspension or emulsion with addition of 0.5% additive at a water application rate of 600 1/ha (converted). After the treatment, the pots are placed in a greenhouse and kept under good growth conditions for the trial plants. After about 3 weeks, the effect of the preparations is scored visually in comparison with untreated controls as percentages. For example, 100% activity=the plants have died, 0% activity=like control plants. Tables B1 to B15 below show the effects of selected compounds of the general formula (I) according to Tables 1 and 2 on various harmful plants and an application rate corresponding to 320 g/ha and/or 80 g/ha, which were obtained by the experimental procedure mentioned above.

POLCO [4] = assay: Herbicidal post-emergence action 1a (greenhouse pots, visual rating); type: in vivo, Polygonum convolvulus; conditions: visual rating about 3 weeks after treatment
Outline: as §1

MATIN [5] = assay: as above; type: in vivo, Matricaria inodora; conditions: visual rating about 3 weeks after treatment
Outline: as §1

AMARE [6] = assay: Herbicidal pre-emergence action 2a (greenhouse pots, visual scoring); type: in vivo, Amaranthus retroflexus; conditions: dosage 320 g/ha, visual scoring after about 3 weeks vs untreated controls
Outline: (§2)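 Sow, cover with soil, spray soil surface (WP or EC in water, 0.5% additive, 600 l/ha; 320 and/or 80 g/ha), grow in greenhouse ~3 weeks, score visually in % against untreated controls.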

SETVI [7] = assay: as above; type: in vivo, Setaria viridis; conditions: dosage 320 g/ha, visual scoring after about 3 weeks vs untreated controls
Outline: as §2

LOLRI [8] = assay: Herbicidal post-emergence action 1a (greenhouse pots, visual rating); type: in vivo, Lolium rigidum; conditions: rated visually about 3 weeks after treatment, 100% = plants have died, 0% = like control plants
Outline: as §1

LOLRI [9] = assay: Herbicidal pre-emergence action 2a (greenhouse pots, visual scoring); type: in vivo, Lolium rigidum; conditions: dosage 320 g/ha, visual scoring after about 3 weeks vs untreated controls
Outline: as §2

PHBPU [10] = assay: as above; type: in vivo, Pharbitis purpurea; conditions: dosage 320 g/ha, visual scoring after about 3 weeks vs untreated controls
Outline: as §2

POLCO [11] = assay: as above; type: in vivo, Polygonum convolvulus; conditions: dosage 320 g/ha, visual scoring after about 3 weeks vs untreated controls
Outline: as §2

AVEFA [12] = assay: as above; type: in vivo, Avena fatua; conditions: dosage 320 g/ha, visual scoring after about 3 weeks
Outline: as §2

ECHCG [13] = assay: Herbicidal post-emergence action 1a (greenhouse pots, visual rating); type: in vivo, Echinochloa crus-galli; conditions: rated visually about 3 weeks after treatment, 100% = plants have died, 0% = like control plants
Outline: as §1

ALOMY [14] = assay: as above; type: in vivo, Alopecurus myosuroides; conditions: rated visually about 3 weeks after treatment, 100% = plants have died, 0% = like control plants
Outline: as §1

VERPE [15] = assay: as above; type: in vivo, Veronica persica; conditions: visual rating about 3 weeks after treatment
Outline: as §1

MATIN [16] = assay: Herbicidal pre-emergence action 2a (greenhouse pots, visual scoring); type: in vivo, Matricaria inodora; conditions: dosage 320 g/ha, visual scoring after about 3 weeks vs untreated controls
Outline: as §2

SETVI [17] = assay: Herbicidal post-emergence action 1a (greenhouse pots, visual rating); type: in vivo, Setaria viridis; conditions: rated visually about 3 weeks after treatment, 100% = plants have died, 0% = like control plants
Outline: as §1

ALOMY [18] = assay: Herbicidal pre-emergence action 2a (greenhouse pots, visual scoring); type: in vivo, Alopecurus myosuroides; conditions: dosage 320 g/ha, visual scoring after about 3 weeks
Outline: as §2

VERPE [19] = assay: as above; type: in vivo, Veronica persica; conditions: dosage 320 g/ha, visual scoring after about 3 weeks vs untreated controls
Outline: as §2

ECHCG [20] = assay: as above; type: in vivo, Echinochloa crus-galli; conditions: dosage 320 g/ha, visual scoring after about 3 weeks
Outline: as §2

ABUTH [21] = assay: Herbicidal post-emergence action 1a (greenhouse pots, visual rating); type: in vivo, Abutilon theophrasti; conditions: visual rating about 3 weeks after treatment
Outline: as §1

PHBPU [22] = assay: as above; type: in vivo, Pharbitis purpurea; conditions: visual rating about 3 weeks after treatment
Outline: as §1

| Compound | Post-emergence action against AMARE in % (AMARE [1]; dosage 320 g/ha) | Post-emergence action against AVEFA in % (AVEFA [2]; Dosage 80 g/ha) | Post-emergence action against AVEFA in % (AVEFA [2]; Dosage 320 g/ha) | Pre-emergence action against ABUTH in % (ABUTH [3]) | Post-emergence action against POLCO in % (POLCO [4]; dosage 320 g/ha) | Pre-emergence action against AMARE in % (AMARE [6]) | Pre-emergence action against SETVI in % (SETVI [7]) | Post-emergence action against LOLRI in % (LOLRI [8]; Dosage 320 g/ha) | Pre-emergence action against LOLRI in % (LOLRI [9]) | Pre-emergence action against PHBPU in % (PHBPU [10]) | Pre-emergence action against POLCO in % (POLCO [11]) | Pre-emergence action against AVEFA in % (AVEFA [12]) | Post-emergence action against ECHCG in % (ECHCG [13]; Dosage 80 g/ha) | Post-emergence action against ECHCG in % (ECHCG [13]; Dosage 320 g/ha) | Post-emergence action against ALOMY in % (ALOMY [14]; Dosage 80 g/ha) | Post-emergence action against ALOMY in % (ALOMY [14]; Dosage 320 g/ha) | Post-emergence action against VERPE in % (VERPE [15]; dosage 80 g/ha) | Post-emergence action against VERPE in % (VERPE [15]; dosage 320 g/ha) | Pre-emergence action against MATIN in % (MATIN [16]) | Post-emergence action against SETVI in % (SETVI [17]; Dosage 80 g/ha) | also measured |
| --- | --- | --- | --- | --- | --- | --- | --- | --- | --- | --- | --- | --- | --- | --- | --- | --- | --- | --- | --- | --- | --- |
| COC(=O)[C@@H](C)Oc1nn(-c2cnccn2)c(-c2cncc(F)c2)c1Cl [Example I-95] | 90% | 80% | 90% | 90% | 90% | 100% | 100% | 90% | 100% | 90% | 100% | 90% | 90% | 90% | 100% | 100% | 90% | 90% | 100% | 90% | Post-emergence action against AMARE in % (AMARE [1]; dosage 80 g/ha): 90%; Post-emergence action against POLCO in % (POLCO [4]; dosage 80 g/ha): 90%; Post-emergence action against MATIN in % (MATIN [5]; dosage 80 g/ha): 80%; Post-emergence action against MATIN in % (MATIN [5]; dosage 320 g/ha): 90%; Post-emergence action against LOLRI in % (LOLRI [8]; Dosage 80 g/ha): 90%; Post-emergence action against SETVI in % (SETVI [17]; Dosage 320 g/ha): 90%; Pre-emergence action against ALOMY in % (ALOMY [18]): 100%; Pre-emergence action against VERPE in % (VERPE [19]): 100%; Pre-emergence action against ECHCG in % (ECHCG [20]): 100%; Post-emergence action against ABUTH in % (ABUTH [21]; dosage 80 g/ha): 90%; Post-emergence action against ABUTH in % (ABUTH [21]; dosage 320 g/ha): 90%; Post-emergence action against PHBPU in % (PHBPU [22]; dosage 80 g/ha): 90%; Post-emergence action against PHBPU in % (PHBPU [22]; dosage 320 g/ha): 90% |
| CCOC(=O)[C@@H](C)Oc1nn(-c2cnccn2)c(-c2cncc(F)c2)c1Cl [Example I-98] | 80% | 80% | 80% | 90% | 80% | 100% | 100% | 90% | 90% | 80% | 90% | 80% | 80% | 80% | 80% | 80% | 80% | 80% | 90% | 80% | Post-emergence action against SETVI in % (SETVI [17]; Dosage 320 g/ha): 80%; Pre-emergence action against ALOMY in % (ALOMY [18]): 90%; Pre-emergence action against VERPE in % (VERPE [19]): 100%; Pre-emergence action against ECHCG in % (ECHCG [20]): 100%; Post-emergence action against ABUTH in % (ABUTH [21]; dosage 80 g/ha): 80%; Post-emergence action against ABUTH in % (ABUTH [21]; dosage 320 g/ha): 80%; Post-emergence action against PHBPU in % (PHBPU [22]; dosage 80 g/ha): 90%; Post-emergence action against PHBPU in % (PHBPU [22]; dosage 320 g/ha): 90% |
